Measurements from patent US11655239B2 (SHANGHAI INSTITUTE OF MATERIAL MEDICA, CHINESE ACADEMY OF …, priority 2019, dated 2023).
Blank lines part the entries; values can stand above or below the compound they belong to.

How the values were obtained:
[1] = system: lung fibroblast cell line MRC-5; experiment: Cytotoxic activity test (MTS), MRC-5; type: cell-based, human; conditions: 5 μM
Procedure: (§1) Experimental objective: The cytotoxic activity of compound S15 on bronchial epithelial cell line Beas-2B and lung fibroblast cell line MRC-5 was tested.
(§2) 1) The human bronchial epithelial cell line Beas-2B and the human embryonic lung fibroblast cell line MRC-5 were collected, and inoculated at a certain density (about 5000-10000 cells) on a 96-well plate (the edge wells were filled with sterile water or PBS). A control was set on each plate (100 μL of culture medium was added);
(§3) 2) The plate was incubated overnight at 37° C., 5% CO2. The plate was turned upside down and observed under the microscope.
(§4) 3) The solutions of different concentrations of the compounds to be tested were added to each well, and a control well (culture medium and MTS solution with cells but no drug) and a blank well (without cells, medium and MTS solution) were set, 3 to 5 repetition wells were set for each group. Incubation was performed at 37° C. for 48-72 hours.
(§5) 4) 10 μL/well of MTS/PMS (20:1, Promega Corp) solution was added to each well containing 100 μL of culture medium, and then the plate was gently shaken. The plate was incubated at 37° C. for 2 to 4 hours.
(§6) 5) M5 microplate reader (Molecular Device, USA) was used to measure the absorbance of the solution at 490 nm. […]

[2] = system: mouse model of BLM-induced lung injury; experiment: Histopathological evaluation of lung sections, H&E staining; type: in vivo; conditions: mice
Procedure: Experimental objective: This group of experiments aimed to investigate the therapeutic potential of the compound S15 in acute lung injury and inflammation induced by bleomycin (BLM).
Experimental grouping (8 mice per group):
Model group (BLM): the mice received BLM (1.7 U/kg) via intratracheal instillation;
Compound S15 group (S15): this group was divided into three dose groups, namely 30, 60 and 90 mg/kg;
Positive control group (Nintedanib): Nintedanib administration group;
Negative control group (Control): only saline was used.
1) Material acquisition: The fresh tissue was fixed in 4% paraformaldehyde for more than 24 hours. The tissue was removed from the fixative solution and trim the tissue at the target site. The trimmed tissue was marked and placed in the dehydration box for later use.
2) Dehydration: The dehydration box was put in the dehydrator and different concentration gradients of ethanol was used sequentially for dehydration. 75% ethanol (4 hours), 85% ethanol (2 hours), 90% ethanol (2 hours), 95% ethanol (1 hour), absolute ethanol I (30 minutes), absolute ethanol II (30 minutes), alcohol benzene (5-10 minutes), xylene I (5-10 minutes), xylene II (5-10 minutes), wax I (1 hour), wax II (1 hour), wax III (1 hour).
3) Embedment: The wax melted at high temperature was put into the embedding frame; before the wax was cooled and solidified, the tissue was taken out of the dehydration box, put into the embedding frame according to the requirements of the embedding surface, marked and cooled at −20° C. After completely solidified, the wax block was removed from the embedding frame and trimmed.
4) Section: The trimmed wax block was put on a paraffin microtome for sectioning. The section thickness was about 4 μm. The sections were floated on warm water at 40° C. of the flotation workstation and flatten. A glass slide was used to lift the tissue from the warm water, and put into a 60° C. oven for dryness. After the water was dried and the wax melted, the glass slide was taken out and stored at ambient temperature for later use. […]

[3] = system: bronchial epithelial cell line Beas-2B; experiment: Cytotoxic activity test (MTS), Beas-2B; type: cell-based, human; conditions: 5 μM
Procedure: as §1, §2, §3, §4, §5, §6

DDR2 = DDR2 (Homo sapiens (Human), UniProt Q16832); experiment: DDR2 enzyme activity test (ELISA); type: biochemical; conditions: read-out: DDR2 IC50
Procedure: The optical rotation and the inhibitory activity against DDR2 enzyme of the compounds S11-A and S11-B obtained by the resolution in Example 12, and the chirally synthesized compounds S11-A′ and S11-B′ in Example 13 were tested (referred to the operation in Effect example 1), and the results are shown in Table 3 below:
Detection method: Enzyme-linked immunosorbent assay (ELISA)
Test receptor tyrosine kinase: DDR2
The kinase used in the experiment was obtained by our laboratory using the insect baculovirus expression system to express and purify the recombinant protein containing the protein kinase region; polyglutamic acid-tyrosine peptide segment [Poly(Glu, Tyr) 4:1] and sodium vanadate were purchased from Sigma; the anti-phosphorylated monoclonal antibody PY99 was purchased from Santa Cruz; horseradish peroxidase labeled goat anti-murine secondary antibody was purchased from Calbiochem; ATP and OPD were purchased from Sangon Biotech (Shanghai) Co., Ltd.; the remaining reagents were purchased from Sinopharm Chemical Reagent Co., Ltd. The reaction ELISA plate (#2592) was purchased from Corning. The full-wavelength microplate reader for experiment reading was a product of Molecular Device, model: SpectraMax 190; the experimental water was distilled water produced by Sinopharm Group.
The compound was centrifuged at 12,000 g for 5 min, and DMSO was added to prepare a 10^-2M stock solution, which was vortexed evenly, then sonicated for 10 min and stored at −40° C. for later use. During the test, the compound was diluted with DMSO from the stock solution to 100 times the test concentration (the DMSO concentration in the system was 1%).
(§7) 1) Enzyme reaction substrate Poly(Glu, Tyr) 4:1 was diluted to 20 μg/mL with potassium-free PBS (10 mM sodium phosphate buffer, 150 mM NaCl, pH 7.2-7.4), and the microtiter plate was coated with 125 μL/well and placed at 37° C. for 12-16 hours of reaction. The liquid in the well was discard. The plate was washed three times with T-PBS (potassium-free PBS containing 0.1% Tween-20, 200 μL/well), 5 minutes each time. The ELISA plate was dried in an oven at 37° C. for 1 to 2 hours.
(§8) 2) Reaction buffer (50 mM HEPES pH 7.4, 50 mM MgCl2, 0.5 mM MnCl2, 0.2 mM Na3VO4, 1 mM DTT) diluted ATP solution (49 μL) was added to each well, 1 μL of the compound to be tested was added to each well, and then 50 μL of DDR2 kinase domain recombinant protein diluted in the reaction buffer was added to start the reaction. Two control wells without ATP were set in each experiment. The plate placed on a shaker (100 rpm) at 37° C. for 1 hour of reaction. The liquid in the well was discarded and the plate was washed three times with T-PBS.
(§9) 3) Antibody PY99 dilution solution (the antibody was diluted 1:500 with T-PBS containing BSA 5 mg/mL) was added at 100 μL/well, and shaken on a shaker at 37° C. for 0.5 hour of reaction. The liquid in the well was discarded and the plate was washed three times with T-PBS.
(§10) 4) Horseradish peroxidase labeled goat anti-murine secondary antibody dilution solution (the antibody is diluted 1:2000 with T-PBS containing BSA 5 mg/ml) was added at 100 μL/well, and shaken on a shaker at 37° C. for 0.5 hour of reaction. The liquid in the well was discarded and the plate was washed three times with T-PBS.
(§11) 5) 2 mg/ml of OPD color developing solution [diluted with 0.1 M citric acid-sodium citrate buffer (pH=5.4) containing 0.03% H2O2] was added at 100 μL/well and reacted for 1 to 10 minutes at 25° C. in the dark.
(§12) 6) 2M H2SO4 was added at 50 μL/well to stop the reaction, and a tunable wavelength microplate reader VERSAmax was used for reading at a wavelength of 490 nm.
The IC50 value was obtained by four-parameter regression using the software that came with the microplate reader.

EGFR = EGFR (Homo sapiens (Human), UniProt P00533); experiment: Enzyme selectivity test (ELISA), EGFR; type: biochemical
Procedure: as §7, §8, §9, §10, §11, §12
(§13) The IC50 value was obtained by four-parameter regression using the software that came with the microplate reader. […]

EPH-A2 = EPH-A2 (Homo sapiens (Human), UniProt P29317); experiment: Enzyme selectivity test (ELISA), EPH-A2; type: biochemical
Procedure: as §7, §8, §9, §10, §11, §12, §13

FGFR-2 = FGFR-2 (Homo sapiens (Human), UniProt P21802); experiment: Enzyme selectivity test (ELISA), FGFR-2; type: biochemical
Procedure: as §7
as §8, with “T-PBS. […]” for “T-PBS.”
as §12, §13

kinases = experiment: Enzyme selectivity test, kinase panel overall; type: biochemical; conditions: kinase panel of Table 5
Source text: Except that the enzyme was different, other test methods and conditions were the same as the DDR2 enzyme activity test method in Effect example 1.

RET = RET (Homo sapiens (Human), UniProt P07949); experiment: Enzyme selectivity test (ELISA), RET; type: biochemical
Procedure: as §7, §8, §9, §10, §11, §12, §13

Abl = Abl (Homo sapiens (Human), UniProt P00519); experiment: Enzyme selectivity test (ELISA), Abl; type: biochemical
Procedure: as §7, §8, §9, §10, §11, §12, §13

FGFR-1 = FGFR-1 (Homo sapiens (Human), UniProt P11362); experiment: Enzyme selectivity test (ELISA), FGFR-1; type: biochemical
Procedure: as §7, §8, §9, §10, §11, §12, §13

KDR = KDR (Homo sapiens (Human), UniProt P35968); experiment: Enzyme selectivity test (ELISA), KDR; type: biochemical
Procedure: as §7, §8, §9, §10, §11, §12, §13

P38 MAPK = experiment: Enzyme selectivity test (ELISA), P38 MAPK; type: biochemical
Procedure: as §7
as §8, with “T-PBS. […]” for “T-PBS.”
as §12, §13

FGFR-3 = FGFR-3 (Homo sapiens (Human), UniProt P22607); experiment: Enzyme selectivity test (ELISA), FGFR-3; type: biochemical
Procedure: as §7
as §8, with “T-PBS. […]” for “T-PBS.”
as §12, §13

ErbB2 = ErbB2 (Homo sapiens (Human), UniProt P04626); experiment: Enzyme selectivity test (ELISA), ErbB2; type: biochemical
Procedure: as §7, §8, §9, §10, §11, §12, §13

AXL = AXL (Homo sapiens (Human), UniProt P30530); experiment: Enzyme selectivity test (ELISA), AXL; type: biochemical
Procedure: as §7, §8, §9, §10, §11, §12, §13

Src = Src (Homo sapiens (Human), UniProt P12931); experiment: Enzyme selectivity test (ELISA), Src; type: biochemical
Procedure: as §7, §8, §9, §10, §11, §12, §13

ALK = ALK (Homo sapiens (Human), UniProt Q9UM73); experiment: Enzyme selectivity test (ELISA), ALK; type: biochemical
Procedure: as §7, §8, §9, §10, §11, §12, §13

PDGFR-α = PDGFR-α (Homo sapiens (Human), UniProt P16234); experiment: Enzyme selectivity test (ELISA), PDGFR-α; type: biochemical
Procedure: as §7, §8, §9, §10, §11, §12, §13

IGF-1R = IGF-1R (Homo sapiens (Human), UniProt P08069); experiment: Enzyme selectivity test (ELISA), IGF-1R; type: biochemical
Procedure: as §7, §8, §9, §10, §11, §12, §13

C-Kit = C-Kit (Homo sapiens (Human), UniProt P10721); experiment: Enzyme selectivity test (ELISA), C-Kit; type: biochemical
Procedure: as §7, §8, §9, §10, §11, §12, §13

Met = Met (Homo sapiens (Human), UniProt P08581); experiment: Enzyme selectivity test (ELISA), Met; type: biochemical
Procedure: as §7, §8, §9, §10, §11, §12, §13

PDGFR-β = PDGFR-β (Homo sapiens (Human), UniProt P09619); experiment: Enzyme selectivity test (ELISA), PDGFR-β; type: biochemical
Procedure: as §7, §8, §9, §10, §11, §12, §13

Flt-3 = Flt-3 (Homo sapiens (Human), UniProt P36888); experiment: Enzyme selectivity test (ELISA), Flt-3; type: biochemical
Procedure: as §7, §8, §9, §10, §11, §12, §13

ErbB4 = ErbB4 (Homo sapiens (Human), UniProt Q15303); experiment: Enzyme selectivity test (ELISA), ErbB4; type: biochemical
Procedure: as §7, §8, §9, §10, §11, §12, §13

FGFR-4 = FGFR-4 (Homo sapiens (Human), UniProt P22455); experiment: Enzyme selectivity test (ELISA), FGFR-4; type: biochemical
Procedure: as §7
as §8, with “T-PBS. […]” for “T-PBS.”
as §12, §13

VEGFR-1 = VEGFR-1 (Homo sapiens (Human), UniProt P17948); experiment: Enzyme selectivity test (ELISA), VEGFR-1; type: biochemical
Procedure: as §7, §8, §9, §10, §11, §12, §13

Src, sequence (P12931 whole entry, looked up, species assumed): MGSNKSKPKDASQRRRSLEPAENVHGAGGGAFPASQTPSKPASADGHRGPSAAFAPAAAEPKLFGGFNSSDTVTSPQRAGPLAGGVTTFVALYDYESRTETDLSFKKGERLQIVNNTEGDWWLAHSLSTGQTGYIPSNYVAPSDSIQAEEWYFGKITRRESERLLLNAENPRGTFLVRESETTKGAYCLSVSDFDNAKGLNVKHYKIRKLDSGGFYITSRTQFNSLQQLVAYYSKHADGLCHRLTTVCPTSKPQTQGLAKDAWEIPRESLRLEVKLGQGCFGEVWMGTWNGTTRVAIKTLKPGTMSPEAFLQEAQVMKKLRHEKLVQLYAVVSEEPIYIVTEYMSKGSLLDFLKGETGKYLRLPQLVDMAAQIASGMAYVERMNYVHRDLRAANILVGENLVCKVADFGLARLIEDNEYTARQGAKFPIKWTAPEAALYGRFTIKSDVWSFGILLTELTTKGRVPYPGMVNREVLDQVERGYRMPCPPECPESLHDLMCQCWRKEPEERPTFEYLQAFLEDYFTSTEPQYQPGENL
FGFR-4, sequence (P22455 22-802, species assumed): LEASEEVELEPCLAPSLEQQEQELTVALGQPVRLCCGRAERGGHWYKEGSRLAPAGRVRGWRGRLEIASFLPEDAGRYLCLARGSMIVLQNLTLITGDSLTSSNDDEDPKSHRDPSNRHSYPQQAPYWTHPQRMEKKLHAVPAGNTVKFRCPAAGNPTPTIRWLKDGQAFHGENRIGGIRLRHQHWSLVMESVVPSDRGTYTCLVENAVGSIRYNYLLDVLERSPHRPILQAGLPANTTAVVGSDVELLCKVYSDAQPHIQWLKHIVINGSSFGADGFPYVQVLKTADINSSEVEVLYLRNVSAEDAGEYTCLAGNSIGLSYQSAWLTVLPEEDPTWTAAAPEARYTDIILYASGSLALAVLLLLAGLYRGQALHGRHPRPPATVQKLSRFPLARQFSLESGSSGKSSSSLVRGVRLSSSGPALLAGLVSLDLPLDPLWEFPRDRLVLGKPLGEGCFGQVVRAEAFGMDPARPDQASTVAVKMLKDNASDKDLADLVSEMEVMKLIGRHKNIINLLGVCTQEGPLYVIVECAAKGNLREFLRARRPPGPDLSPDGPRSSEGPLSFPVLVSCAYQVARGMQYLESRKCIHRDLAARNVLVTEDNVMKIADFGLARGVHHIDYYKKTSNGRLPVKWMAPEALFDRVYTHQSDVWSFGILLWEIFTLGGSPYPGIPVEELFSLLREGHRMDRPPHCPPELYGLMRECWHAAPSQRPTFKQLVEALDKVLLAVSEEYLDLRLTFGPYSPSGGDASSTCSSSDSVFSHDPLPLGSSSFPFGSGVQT
DDR2, sequence (Q16832 563-849): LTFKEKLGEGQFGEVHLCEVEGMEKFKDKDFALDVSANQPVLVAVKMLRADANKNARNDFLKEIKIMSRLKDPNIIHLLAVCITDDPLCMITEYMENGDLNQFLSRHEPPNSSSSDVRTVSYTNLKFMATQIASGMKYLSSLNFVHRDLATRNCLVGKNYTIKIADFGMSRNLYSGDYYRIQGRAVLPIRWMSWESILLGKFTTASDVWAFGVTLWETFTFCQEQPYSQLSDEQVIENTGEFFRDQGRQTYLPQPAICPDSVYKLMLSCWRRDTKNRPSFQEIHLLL
PDGFR-α, sequence (P16234 24-1089, species assumed): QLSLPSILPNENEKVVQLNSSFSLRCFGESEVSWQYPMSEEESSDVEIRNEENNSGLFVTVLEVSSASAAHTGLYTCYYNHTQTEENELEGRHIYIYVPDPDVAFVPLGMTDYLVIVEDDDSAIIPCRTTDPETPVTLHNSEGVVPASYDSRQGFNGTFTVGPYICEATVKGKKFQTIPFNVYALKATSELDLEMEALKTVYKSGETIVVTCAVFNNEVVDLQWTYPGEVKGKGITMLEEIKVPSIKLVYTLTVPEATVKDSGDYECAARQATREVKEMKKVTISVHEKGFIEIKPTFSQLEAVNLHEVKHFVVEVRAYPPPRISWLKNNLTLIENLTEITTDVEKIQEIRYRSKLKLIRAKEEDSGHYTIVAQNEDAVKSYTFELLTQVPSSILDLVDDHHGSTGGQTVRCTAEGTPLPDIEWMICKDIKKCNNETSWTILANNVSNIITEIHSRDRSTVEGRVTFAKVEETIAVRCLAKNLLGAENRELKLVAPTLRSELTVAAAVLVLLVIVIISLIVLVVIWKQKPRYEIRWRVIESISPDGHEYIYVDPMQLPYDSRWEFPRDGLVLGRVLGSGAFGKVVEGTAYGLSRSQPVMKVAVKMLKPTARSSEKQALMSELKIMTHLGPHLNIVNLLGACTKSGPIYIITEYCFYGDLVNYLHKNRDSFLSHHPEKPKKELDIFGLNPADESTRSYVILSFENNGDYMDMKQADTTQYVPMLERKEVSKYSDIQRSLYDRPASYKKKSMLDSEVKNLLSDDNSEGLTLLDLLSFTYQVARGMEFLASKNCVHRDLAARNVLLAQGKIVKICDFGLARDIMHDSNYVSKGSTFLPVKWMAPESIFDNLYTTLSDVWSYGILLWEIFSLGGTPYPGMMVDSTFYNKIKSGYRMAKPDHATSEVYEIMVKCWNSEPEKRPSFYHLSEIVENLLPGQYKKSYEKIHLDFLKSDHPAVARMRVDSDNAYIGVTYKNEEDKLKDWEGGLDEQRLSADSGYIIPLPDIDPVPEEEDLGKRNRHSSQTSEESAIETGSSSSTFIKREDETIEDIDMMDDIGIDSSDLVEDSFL
IGF-1R, sequence (P08069 31-1367, species assumed): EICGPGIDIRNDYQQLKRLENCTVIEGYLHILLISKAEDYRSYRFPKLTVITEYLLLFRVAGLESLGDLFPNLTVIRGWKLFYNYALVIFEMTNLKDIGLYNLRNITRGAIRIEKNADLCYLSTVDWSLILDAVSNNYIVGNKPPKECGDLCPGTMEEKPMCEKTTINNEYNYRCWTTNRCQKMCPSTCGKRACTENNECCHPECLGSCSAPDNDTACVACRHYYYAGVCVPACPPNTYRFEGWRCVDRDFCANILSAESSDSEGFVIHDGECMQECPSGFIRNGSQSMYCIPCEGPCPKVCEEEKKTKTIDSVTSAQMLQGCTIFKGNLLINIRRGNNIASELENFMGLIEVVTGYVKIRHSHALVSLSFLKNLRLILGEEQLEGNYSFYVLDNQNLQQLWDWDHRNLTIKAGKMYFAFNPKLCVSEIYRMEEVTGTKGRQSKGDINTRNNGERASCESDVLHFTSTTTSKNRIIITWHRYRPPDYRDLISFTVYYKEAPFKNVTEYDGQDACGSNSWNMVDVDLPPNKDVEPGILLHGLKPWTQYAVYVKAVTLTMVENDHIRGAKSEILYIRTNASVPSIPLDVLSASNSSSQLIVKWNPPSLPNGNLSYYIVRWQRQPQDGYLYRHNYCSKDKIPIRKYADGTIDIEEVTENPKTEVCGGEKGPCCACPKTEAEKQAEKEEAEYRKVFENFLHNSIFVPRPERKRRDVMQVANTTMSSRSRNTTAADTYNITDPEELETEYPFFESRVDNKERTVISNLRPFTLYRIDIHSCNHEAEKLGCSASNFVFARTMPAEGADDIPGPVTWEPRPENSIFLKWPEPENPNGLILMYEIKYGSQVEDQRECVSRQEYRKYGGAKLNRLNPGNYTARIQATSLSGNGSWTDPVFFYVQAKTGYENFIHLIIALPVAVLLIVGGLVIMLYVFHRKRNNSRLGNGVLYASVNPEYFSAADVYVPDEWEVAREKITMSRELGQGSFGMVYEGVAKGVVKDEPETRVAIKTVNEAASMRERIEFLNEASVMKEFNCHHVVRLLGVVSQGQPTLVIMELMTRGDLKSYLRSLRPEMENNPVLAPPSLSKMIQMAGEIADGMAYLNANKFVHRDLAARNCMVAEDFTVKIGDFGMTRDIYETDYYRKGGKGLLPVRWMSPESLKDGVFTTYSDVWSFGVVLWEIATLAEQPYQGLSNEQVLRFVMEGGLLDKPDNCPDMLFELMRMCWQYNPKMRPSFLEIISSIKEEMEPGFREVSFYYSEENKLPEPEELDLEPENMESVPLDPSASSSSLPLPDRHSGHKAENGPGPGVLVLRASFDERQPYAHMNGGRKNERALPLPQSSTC
C-Kit, sequence (P10721 26-976): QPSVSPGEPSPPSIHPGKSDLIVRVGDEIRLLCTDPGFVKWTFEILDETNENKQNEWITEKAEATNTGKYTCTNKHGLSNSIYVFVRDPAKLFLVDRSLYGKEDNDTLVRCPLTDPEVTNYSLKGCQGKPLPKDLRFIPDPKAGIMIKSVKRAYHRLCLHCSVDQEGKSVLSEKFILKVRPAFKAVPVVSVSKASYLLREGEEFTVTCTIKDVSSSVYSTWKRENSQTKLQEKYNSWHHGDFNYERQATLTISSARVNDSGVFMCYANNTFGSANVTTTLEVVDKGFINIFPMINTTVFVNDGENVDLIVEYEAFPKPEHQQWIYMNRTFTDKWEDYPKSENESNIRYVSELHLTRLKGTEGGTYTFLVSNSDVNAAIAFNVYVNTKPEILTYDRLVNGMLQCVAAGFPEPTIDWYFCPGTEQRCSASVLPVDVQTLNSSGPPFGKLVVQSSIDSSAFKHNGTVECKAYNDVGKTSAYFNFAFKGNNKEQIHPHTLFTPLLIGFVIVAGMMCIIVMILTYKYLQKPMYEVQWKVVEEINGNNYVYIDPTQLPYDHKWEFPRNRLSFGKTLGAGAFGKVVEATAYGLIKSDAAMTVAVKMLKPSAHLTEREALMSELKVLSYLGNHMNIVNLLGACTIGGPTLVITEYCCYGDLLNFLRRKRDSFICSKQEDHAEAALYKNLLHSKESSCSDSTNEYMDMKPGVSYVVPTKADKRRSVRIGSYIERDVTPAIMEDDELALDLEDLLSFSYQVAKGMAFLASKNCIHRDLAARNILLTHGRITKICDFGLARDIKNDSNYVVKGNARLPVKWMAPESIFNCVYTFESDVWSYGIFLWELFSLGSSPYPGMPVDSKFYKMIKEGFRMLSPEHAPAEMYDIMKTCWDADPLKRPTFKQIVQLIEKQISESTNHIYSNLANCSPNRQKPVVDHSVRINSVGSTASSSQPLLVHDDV

Compound: COC(=O)c1ccc2c(c1)NC(=O)/C2=C(\Nc1ccc(N(C)C(=O)CN2CCN(C)CC2)cc1)c1ccccc1 [Nintedanib]
cytotoxic activity on MRC-5 [1]: significant cytotoxicity | BLM-induced lung injury, H&E staining ([2]; Effect example 4, S15 30, 60, 90 mg/kg, Nintedanib 30 mg/kg, oral qd 12 days): improved significantly | BLM-induced lung injury, H&E staining ([2]; Effect example 7, 30 mg/kg oral qd 12 days): significantly improved | cytotoxic activity on Beas-2B [3]: significant cytotoxicity

IC50 (DDR2): 0.0037 ± 0.0002 µM | IC50 (EGFR): > 1 µM | IC50 (EPH-A2): > 1 µM | IC50 (FGFR-2): > 1 µM | selectivity for kinases (kinases): good selectivity | IC50 (RET): > 1 µM | IC50 (Abl): > 1 µM | IC50 (FGFR-1): > 1 µM | IC50 (KDR): > 1 µM | IC50 (P38 MAPK): > 1 µM | IC50 (FGFR-3): > 1 µM | IC50 (ErbB2): > 1 µM | IC50 (AXL): > 1 µM | IC50 (Src): > 1 µM | IC50 (ALK): > 1 µM | IC50 (PDGFR-α): > 1 µM | IC50 (IGF-1R): > 1 µM | IC50 (C-Kit): > 1 µM | IC50 (Met): > 1 µM | IC50 (PDGFR-β): > 1 µM | IC50 (Flt-3): > 1 µM | IC50 (ErbB4): > 1 µM | IC50 (FGFR-4): > 1 µM | IC50 (VEGFR-1): > 1 µM
Compound: CCC(NC(=O)c1ccc(C2CC2)c(-c2ccc3nc(Nc4cnn(C5CC5)c4)ncc3c2)c1)c1cccc(C(F)(F)F)c1 (stereo not shown) [Compound S18]
